In patent US7396837B2, “Antitumoral analogs of lamellarins” (Pharma Mar, S.A.U., priority 2002, dated 2008):
Where two headings read alike, the source gives them in different places.

Assays:
K-562 = assay: SRB colorimetric cell growth inhibition assay, K-562; assay type: cell-based; conditions: Homo sapiens, K562, K-562; for GI50: GI=growth inhibition, read-out: GI50 K-562; for CC50: read-out: LC50 K-562; for IC (TGI): read-out: TGI K-562
Outline: (§1)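 Cancer cells grown in vitro were continuously treated with compound. Cell mass was then determined by SRB staining and expressed as growth inhibition.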

A-549 = assay: SRB colorimetric cell growth inhibition assay, A-549; assay type: cell-based; conditions: Homo sapiens, A549, A-549; for GI50: GI=growth inhibition, read-out: GI50 A-549; for CC50: read-out: LC50 A-549; for IC (TGI): read-out: TGI A-549
Outline: as §1

SK-MEL-28 = assay: SRB colorimetric cell growth inhibition assay, SK-MEL-28; assay type: cell-based; conditions: Homo sapiens, SK-MEL-28, MEL-28; for GI50: GI=growth inhibition, read-out: GI50 MEL-28; for CC50: read-out: LC50 MEL-28; for IC (TGI): read-out: TGI MEL-28
Outline: as §1

HT-29 = assay: SRB colorimetric cell growth inhibition assay, HT-29; assay type: cell-based; conditions: Homo sapiens; for GI50: GI=growth inhibition, read-out: GI50 HT-29; for CC50: read-out: LC50 HT-29; for IC (TGI): read-out: TGI HT-29
Outline: as §1

LoVo = assay: SRB colorimetric cell growth inhibition assay, LoVo; assay type: cell-based; conditions: Homo sapiens; for GI50: GI=growth inhibition, read-out: GI50 LOVO; for CC50: read-out: LC50 LOVO; for IC (TGI): read-out: TGI LOVO
Outline: as §1

LoVo-Dox = assay: SRB colorimetric cell growth inhibition assay, LoVo-Dox (MDR); assay type: cell-based; conditions: Homo sapiens, LOVO-DOX; for GI50: GI=growth inhibition, read-out: GI50 LOVO-DOX; for CC50: read-out: LC50 LOVO-DOX; for IC (TGI): read-out: TGI LOVO-DOX
Outline: as §1

DU-145 = assay: SRB colorimetric cell growth inhibition assay, DU-145; assay type: cell-based; conditions: Homo sapiens; for GI50: GI=growth inhibition, read-out: GI50 DU-145; for CC50: read-out: LC50 DU-145; for IC (TGI): read-out: TGI DU-145
Outline: as §1

LNCaP = assay: SRB colorimetric cell growth inhibition assay, LNCaP; assay type: cell-based; conditions: Homo sapiens, LNCaP, LN-caP; for GI50: GI=growth inhibition, read-out: GI50 LN-caP; for CC50: read-out: LC50 LN-caP; for IC (TGI): read-out: TGI LN-caP
Outline: as §1

SK-BR-3 = assay: SRB colorimetric cell growth inhibition assay, SK-BR-3; assay type: cell-based; conditions: Homo sapiens; for GI50: GI=growth inhibition, read-out: GI50 SK-BR-3; for CC50: read-out: LC50 SK-BR-3; for IC (TGI): read-out: TGI SK-BR-3
Outline: as §1

IGROV = assay: SRB colorimetric cell growth inhibition assay, IGROV; assay type: cell-based
Outline: as §1

IGROV-ET = assay: SRB colorimetric cell growth inhibition assay, IGROV-ET (ET-743 resistant); assay type: cell-based; conditions: Homo sapiens, IGROV-ET; for GI50: GI=growth inhibition, read-out: GI50 IGROV-ET; for CC50: read-out: LC50 IGROV-ET; for IC (TGI): read-out: TGI IGROV-ET
Outline: as §1

PANC-1 = assay: SRB colorimetric cell growth inhibition assay, PANC-1; assay type: cell-based; conditions: Homo sapiens; for GI50: GI=growth inhibition, read-out: GI50 PANC-1; for CC50: read-out: LC50 PANC-1; for IC (TGI): read-out: TGI PANC-1
Outline: as §1

human topoisomerase I = biological target: T1, human topoisomerase I (Homo sapiens, UniProt P11387); assay: Topoisomerase I DNA relaxation assay (supercoiled plasmid DNA); assay type: biochemical; conditions: supercoiled plasmid DNA, each compound tested at 1 μM, agarose gel with ethidium bromide
T1 sequence (P11387 1-765): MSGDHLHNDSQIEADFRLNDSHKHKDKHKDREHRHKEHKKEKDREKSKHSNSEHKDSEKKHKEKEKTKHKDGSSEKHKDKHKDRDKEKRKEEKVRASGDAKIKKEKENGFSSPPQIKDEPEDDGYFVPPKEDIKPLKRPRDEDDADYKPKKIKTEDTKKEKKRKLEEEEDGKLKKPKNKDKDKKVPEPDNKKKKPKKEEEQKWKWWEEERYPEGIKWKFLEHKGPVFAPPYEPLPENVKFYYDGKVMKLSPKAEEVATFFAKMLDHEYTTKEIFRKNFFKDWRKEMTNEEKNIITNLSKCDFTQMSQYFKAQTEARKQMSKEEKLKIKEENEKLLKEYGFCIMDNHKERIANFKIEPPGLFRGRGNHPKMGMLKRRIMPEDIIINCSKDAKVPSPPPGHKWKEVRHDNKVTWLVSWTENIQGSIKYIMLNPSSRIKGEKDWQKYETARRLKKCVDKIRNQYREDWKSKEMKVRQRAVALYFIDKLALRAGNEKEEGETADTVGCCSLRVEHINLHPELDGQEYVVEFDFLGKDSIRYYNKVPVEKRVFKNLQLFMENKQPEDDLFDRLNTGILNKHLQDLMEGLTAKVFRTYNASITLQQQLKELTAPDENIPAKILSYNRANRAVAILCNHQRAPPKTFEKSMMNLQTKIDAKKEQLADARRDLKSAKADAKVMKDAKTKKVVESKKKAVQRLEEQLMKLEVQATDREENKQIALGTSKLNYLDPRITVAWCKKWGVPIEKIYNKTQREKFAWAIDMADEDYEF
Outline: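 Supercoiled plasmid DNA was relaxed by human topoisomerase I with or without test compound at 1 μM. Products were resolved by agarose gel electrophoresis with ethidium bromide staining.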

[1] = LC=cell killing (cytotoxic effect)
[2] = TGI=total growth inhibition (cytostatic effect)
[3] = cell killing (cytotoxic effect)
[4] = total growth inhibition (cytostatic effect)

COc1cc(-c2c3c4cc(OC)c(OC(=O)[C@@H](N)CC(C)C)cc4oc(=O)c3n3ccc4cc(OC(=O)[C@@H](N)CC(C)C)c(OC)cc4c23)ccc1OC(=O)[C@@H](N)CC(C)C [Compound 39]
GI50 (K-562): 0.0359 µM | CC50 (K-562; [1]): 8.47 µM | IC (TGI) (K-562; [2]): 1.08 µM | GI50 (A-549): 0.0464 µM | CC50 (A-549; [1]): 8.47 µM | IC (TGI) (A-549; [2]): 0.855 µM | GI50 (SK-MEL-28): 0.0339 µM | CC50 (SK-MEL-28; [1]): 8.47 µM | IC (TGI) (SK-MEL-28; [2]): 0.295 µM | GI50 (HT-29; HT-29, HT-29): 3.04 µM | CC50 (HT-29; HT-29, HT-29, LC=cell killing (cytotoxic effect)): 8.47 µM | IC (TGI) (HT-29; HT-29, HT-29, TGI=total growth inhibition (cytostatic effect)): 8.47 µM | GI50 (LoVo; LoVo): 0.321 µM | CC50 (LoVo; LoVo, LC=cell killing (cytotoxic effect)): 8.47 µM | IC (TGI) (LoVo; LoVo, TGI=total growth inhibition (cytostatic effect)): 2.53 µM | GI50 (LoVo-Dox): 0.323 µM | CC50 (LoVo-Dox; [1]): 8.47 µM | IC (TGI) (LoVo-Dox; [2]): 1.81 µM | GI50 (DU-145; DU-145, DU-145): 0.018 µM | CC50 (DU-145; DU-145, DU-145, LC=cell killing (cytotoxic effect)): 8.47 µM | IC (TGI) (DU-145; DU-145, DU-145, TGI=total growth inhibition (cytostatic effect)): 0.142 µM | GI50 (LNCaP): 0.0279 µM | CC50 (LNCaP; [1]): 8.47 µM | IC (TGI) (LNCaP; [2]): 0.252 µM | GI50 (SK-BR-3; SK-BR-3, SK-BR-3): 0.0545 µM | CC50 (SK-BR-3; SK-BR-3, SK-BR-3, LC=cell killing (cytotoxic effect)): 8.47 µM | IC (TGI) (SK-BR-3; SK-BR-3, SK-BR-3, TGI=total growth inhibition (cytostatic effect)): 1.46 µM | GI50 (IGROV; Homo sapiens, IGROV; GI=growth inhibition; read-out: GI50 IGROV): 0.0341 µM | CC50 (IGROV; Homo sapiens, IGROV; LC=cell killing (cytotoxic effect); read-out: LC50 IGROV): 8.47 µM | IC (TGI) (IGROV; Homo sapiens, IGROV; TGI=total growth inhibition (cytostatic effect); read-out: TGI IGROV): 0.931 µM | GI50 (IGROV-ET): 0.055 µM | CC50 (IGROV-ET; [1]): 8.47 µM | IC (TGI) (IGROV-ET; [2]): 0.369 µM | GI50 (PANC-1; PANC-1, PANC-1): 0.164 µM | CC50 (PANC-1; PANC-1, PANC-1, LC=cell killing (cytotoxic effect)): 8.47 µM | IC (TGI) (PANC-1; PANC-1, PANC-1, TGI=total growth inhibition (cytostatic effect)): 8.47 µM | stimulation of DNA cleavage by topoisomerase I / inhibition of topoisomerase I (nicked DNA band) in DNA relaxation assay (human topoisomerase I): marked inhibition of topoisomerase I

COc1cc(-c2c3n(c4c(=O)oc5cc(OC(=O)[C@@H](N)Cc6c[nH]c7ccccc67)c(OC)cc5c24)CCc2cc(OC(=O)[C@@H](N)Cc4c[nH]c5ccccc45)c(OC)cc2-3)ccc1OC(=O)[C@@H](N)Cc1c[nH]c2ccccc12 [Compound 24]
GI50 (K-562): 0.68 µM | CC50 (K-562; [3]): 5.3 µM | IC (TGI) (K-562; [4]): 1.91 µM | GI50 (A-549): 1.55 µM | CC50 (A-549; [3]): 7.13 µM | IC (TGI) (A-549; [4]): 3.37 µM | GI50 (SK-MEL-28): 1.38 µM | CC50 (SK-MEL-28; [3]): 5.74 µM | IC (TGI) (SK-MEL-28; [4]): 2.81 µM | CC50 (HT-29; HT-29, HT-29, cell killing (cytotoxic effect)): 7.13 µM | GI50 (HT-29; HT-29): 7.13 µM | IC (TGI) (HT-29; HT-29, total growth inhibition (cytostatic effect)): 7.13 µM | CC50 (LoVo; LoVo, cell killing (cytotoxic effect)): 4.28 µM | GI50 (LoVo; LOVO): 0.749 µM | IC (TGI) (LoVo; LOVO, total growth inhibition (cytostatic effect)): 1.78 µM | GI50 (LoVo-Dox): 0.891 µM | CC50 (LoVo-Dox; [3]): 7.13 µM | IC (TGI) (LoVo-Dox; [4]): 3.66 µM | CC50 (DU-145; DU-145, DU-145, cell killing (cytotoxic effect)): 7.13 µM | GI50 (DU-145; DU-145): 0.913 µM | IC (TGI) (DU-145; DU-145, total growth inhibition (cytostatic effect)): 2.94 µM | GI50 (LNCaP): 0.934 µM | CC50 (LNCaP; [3]): 3.89 µM | IC (TGI) (LNCaP; [4]): 1.91 µM | CC50 (SK-BR-3; SK-BR-3, SK-BR-3, cell killing (cytotoxic effect)): 5.58 µM | GI50 (SK-BR-3; SK-BR-3): 0.653 µM | IC (TGI) (SK-BR-3; SK-BR-3, total growth inhibition (cytostatic effect)): 1.93 µM | CC50 (IGROV; Homo sapiens, IGROV; cell killing (cytotoxic effect); read-out: LC50 IGROV): 7.13 µM | GI50 (IGROV; Homo sapiens; IGROV; GI=growth inhibition; read-out: GI50 IGROV): 1.23 µM | IC (TGI) (IGROV; Homo sapiens; IGROV; total growth inhibition (cytostatic effect); read-out: TGI IGROV): 4.82 µM | GI50 (IGROV-ET): 1.31 µM | CC50 (IGROV-ET; [3]): 7.13 µM | IC (TGI) (IGROV-ET; [4]): 7.13 µM | CC50 (PANC-1; PANC-1, PANC-1, cell killing (cytotoxic effect)): 7.13 µM | IC (TGI) (PANC-1; PANC-1, PANC-1, total growth inhibition (cytostatic effect)): 6.23 µM | GI50 (PANC-1; PANC-1): 1.34 µM | stimulation of DNA cleavage by topoisomerase I / inhibition of topoisomerase I (nicked DNA band) in DNA relaxation assay (human topoisomerase I): inhibit topoisomerase I
